In US6476043B1, “Use of camptothecin derivatives, with reduced gastrointestinal toxicity” (Aventis Pharma S.A., priority 1998, dated 2002):

Experiments:
[1] = mice, CPT-11 40 mg/kg i.v.; CPT-11 group versus CPT-11/NaCl group, days 1 and 5
Protocol: The body weight is measured on days 1, 3, 6 and 8. The plasma samples for the toxicokinetic analysis are taken on days 1 and 5. […] The relative and absolute weights of the thymus, of the spleen and of the testicles are measured, and the complete gastrointestinal tract, the sternal bone marrow, the thymus, the spleen, the testicles and the epididymes are removed from all the mice and subjected to examination under a microscope.

[2] = test system: CD1 male mice; test: Study I: protective effect of oral sodium chloride solution on the intestinal toxicity of intravenous CPT-11; format: in vivo
Protocol: The body weight is recorded on days 1, 6, 11 and 13. […] The complete gastrointestinal tract is removed from all of the mice. The gastrointestinal tract of the mice which survived to the end of the observation period is subjected to examination under a microscope.

[3] = test system: mammary adenocarcinoma MA16/C; test: Study IV: effect of oral sodium chloride solution on the antitumour activity of intravenous CPT-11
From the text: A Log tumour cell kill value of 0.7 corresponds to minimum activity, while a value greater than 2.8 corresponds to a high level of activity.

[4] = test system: female Beagle dogs
Protocol: The animals are kept with no administration for 2 days after the final administration of sodium chloride at 9 g/l (up to day 9).
The body weight is recorded during the pretest period and on days 5 and 9. The animals are sacrificed and autopsied on day 9. Representative tissue samples taken from the gastrointestinal tract are removed from all the animals and subjected to examination under a microscope.

| SMILES | areas under the curve (AUC) [1] | maximum plasma concentrations (Cmax) [1] | loss of body weight ([2]; CPT-11 40 mg/kg i.v. days 6 to 10, CPT-11 group compared with CPT-11/NaCl group) | severity of microscopic intestinal lesions (loss of crypts, shortening of villi) ([2]; CPT-11 40 mg/kg i.v. days 6 to 10, autopsy day 13, small intestine) | mortality linked to the administration of CPT-11 ([2]; CPT-11 40 mg/kg i.v. days 6 to 10, observed on days 6 and 7, dead/total mice) | total cumulative dose at the maximum nontoxic dose ([3]; C3H/HeN female mice carrying MA16/C, i.v. for 5 consecutive days) [mg/kg] | maximum loss of body weight ([3]; at the maximum nontoxic dose, day 11 (CPT-11 group), day 12 (CPT-11/NaCl group)) [%] | Log cell kill value ([3]; mammary adenocarcinoma MA16/C s.c. in C3H/HeN female mice, at the maximum nontoxic dose) | severity of gastrointestinal lesions (degeneration of the mucosa) ([4]; CPT-11 20 mg/kg single i.v. dose on day 6, autopsy day 9) | redness on the mucosa of the large intestine (frequency) ([4]; CPT-11 20 mg/kg single i.v. dose, CPT-11 group compared with CPT-11/NaCl group) |
| --- | --- | --- | --- | --- | --- | --- | --- | --- | --- | --- |
| CCc1c2c(nc3ccc(O)cc13)-c1cc3c(c(=O)n1C2)COC(=O)[C@]3(O)CC [SN-38] | identical | identical |  |  |  |  |  |  |  |  |
| CCc1c2c(nc3ccc(OC(=O)N4CCC(N5CCCCC5)CC4)cc13)-c1cc3c(c(=O)n1C2)COC(=O)[C@]3(O)CC [CPT-11, irinotecan] | identical | identical | greater | moderate to pronounced | 7/15 | 118 | 10 | 1.7 | moderate to pronounced | more common |
